Non-standard residues stand in square brackets, D forms with d. Residues, ends and D or L forms follow the SMILES beside them. No end group written: not given here.
Experiments:
Assay type in all cases: cell-based, Acinetobacter baumannii
[1] = system: A. baumannii A-8.2–1 (XDR); assay: microbe, parasite or virus in culture; conditions: clinical isolate A-8.2–1 (XDR), blood
Text: (§1) Ten strains of both Gram-positive and -negative bacteria, including Staphylococcus aureus ATCC 25,923, S. epidermidis ATCC 12,228, Bacillus cereus ATCC 11,778, Listeria monocytogenes 10403S, Salmonella typhimurium ATCC 13,311, Pseudomonas aeruginosa ATCC 27,853, Shigella sonnei ATCC 11,060, A. baumannii ATCC 19,606, Escherichia coli ATCC 25,922 and E. coli O157:H7, were used in this study. Eight clinical isolates of multidrug-resistant (MDR) and extensively drug-resistant (XDR) A. baumannii, isolated from human (blood, sputum, respiratory sample, sterile site sample and urine), were kindly provided by Asst. Prof. Dr. Sakawrat Kanthawong (Faculty of Medicine, Khon Kaen University, Thailand) (Table S1). All bacterial strains, excluding L. monocytogenes 10403S and E. coli, were cultured in tryptic soy broth (TSB). L. monocytogenes was grown in TSB supplemented with 0.6% yeast extract (TSB-YE), and E. coli was cultured in Luria broth (LB). All of bacteria were cultured at 37 °C with continuous shaking at 220 rpm.
(§2) Minimum inhibitory concentration (MIC) of peptides and antibiotics was assessed by a modified version of the broth microdilution method from the Clinical and Laboratory Standards Institute (CLSI) as previously described. In brief, mid-log phase growths of microbial strains were cultured in Müeller-Hinton broth (MHB) with an initial inoculum of 2–8 × 10^5 CFU/mL. Bacteria suspensions were incubated in sterile 96-well plates with test agents at desired concentrations. […] Minimum bactericidal concentration (MBC) determination was performed using a modified version of the colony count assay. In brief, fifty µl of all non-turbid wells from MIC experiments were spread on agar plates. The MBC value was defined as the lowest concentration of peptides with no colony growth on the plate. All assays were performed in triplicate.

A. baumannii ATCC 19,606 [2] = assay: microbe, parasite or virus in culture; conditions: A. baumannii ATCC 19,606, triplicate; for MIC: broth microdilution (modified CLSI), MHB, 2–8 × 10^5 CFU/mL, 24 h, 37 °C; for MBC: colony count from non-turbid MIC wells
Text: as §1, §2

[3] = system: A. baumannii B-8.1–1 (MDR); assay: microbe, parasite or virus in culture; conditions: clinical isolate B-8.1–1 (MDR), respiratory tract
Text: as §1, §2

[4] = system: A. baumannii B-8.1–2 (MDR); assay: microbe, parasite or virus in culture; conditions: clinical isolate B-8.1–2 (MDR), respiratory tract
Text: as §1, §2

[5] = system: A. baumannii B-8.2–2 (XDR); assay: microbe, parasite or virus in culture; conditions: clinical isolate B-8.2–2 (XDR), respiratory tract
Text: as §1, §2

[6] = system: A. baumannii C-8.1–2 (MDR); assay: microbe, parasite or virus in culture; conditions: clinical isolate C-8.1–2 (MDR), sterile site
Text: as §1, §2

[7] = system: A. baumannii C-8.2–1 (XDR); assay: microbe, parasite or virus in culture; conditions: clinical isolate C-8.2–1 (XDR), sterile site
Text: as §1, §2

[8] = system: A. baumannii D-10.1–1 (MDR); conditions: clinical isolate D-10.1–1 (MDR), urine
Text: as §1, §2

[9] = system: A. baumannii D-10.1–2 (MDR); conditions: clinical isolate D-10.1–2 (MDR), urine
Text: as §1, §2

A. baumannii ATCC 19,606 [10] = assay: Peptide stability in human plasma (MIC/MBC after pre-incubation); conditions: peptide mixed with pure human plasma, 1 h, 37 °C, then two-fold diluted in MHB, bacteria 24 h
Description: as §2
(§3) The MIC and MBC assays were performed after peptide was exposed to various conditions, including proteolytic enzymes, serum salts and human plasma. […] To determine peptide sensitivity to physiological salts, approximately 5 × 10^5 CFU/ml of A. baumannii ATCC 19,606 was mixed with the MHB containing different physiological salts at final concentration as follows: 150 mM NaCl, 4.5 mM KCl, 1 mM MgCl2, 6 µM NH4Cl, 8 µM ZnCl2, 4 µM FeCl3 and […]. After treatment, the MIC was evaluated as described in 2.4. To test the stability of peptides in human plasma, peptide was mixed with pure human plasma, and the mixture was incubated for 1 h at 37 °C. Then, the mixture was two-fold serially diluted with sterile MHB. The peptides at final concentrations of 0.98 to 250 µg/ml were incubated with an equal volume of bacterial suspension at 37 °C for 24 h. MIC values were determined as described in 2.4.

A. baumannii ATCC 19,606 [11] = assay: Peptide sensitivity to physiological salts (MIC/MBC); conditions: for MBC in the presence of FeCl3 / MIC in the presence of FeCl3: MHB with 4 µM FeCl3; for MBC in the presence of NH4Cl / MIC in the presence of NH4Cl: MHB with 6 µM NH4Cl; for MBC in the presence of ZnCl2 / MIC in the presence of ZnCl2: MHB with 8 µM ZnCl2; for MBC in the presence of MgCl2 / MIC in the presence of MgCl2: MHB with 1 mM MgCl2; for MBC in the presence of KCl / MIC in the presence of KCl: MHB with 4.5 mM KCl; for MBC in the presence of NaCl / MIC in the presence of NaCl: MHB with 150 mM NaCl; for MBC in the presence of CaCl2 / MIC in the presence of CaCl2: MHB with […] CaCl2; for MBC, control / MIC, control: control: absence of serum salts, MHB
Description: as §2, §3

Row | Compound | MBC [1] | MIC [1] | MIC (A. baumannii ATCC 19,606 [2]) | MBC (A. baumannii ATCC 19,606 [2]) | MBC [3] | MIC [3] | MBC [4] | MIC [4] | MBC [5] | MIC [5] | MBC [6] | MIC [6] | MBC [7] | MIC [7] | MBC [8] | MIC [8] | MBC [9] | MIC [9] | MBC in the presence of human plasma (A. baumannii ATCC 19,606 [10]) | MIC in the presence of human plasma (A. baumannii ATCC 19,606 [10]) | also measured
1 | CC[C@@H](C)[C@@H](NC(=O)[C@@H](CCCCN)NC(=O)CNC(=O)[C@@H](C)NC(=O)[C@H](NC(=O)[C@@H](CCCCN)NC(=O)[C@@H](CCCCN)NC(=O)[C@H](NC(=O)[C@@H](CCCNC(=N)N)NC(=O)[C@@H](CCCNC(=N)N)NC(=O)[C@@H](Cc1ccccc1)NC(=O)[C@@H](CC(C)C)NC(=O)[C@H](N)CCCNC(=N)N)C(C)C)C(C)C)C(=O)N[C@H](C)C(=O)N[C@H](CCCCN)C(=O)N[C@H](CCCNC(=N)N)C(=O)N[C@@H](C(=O)N[C@H](Cc1c[nH]c2ccccc12)C(=O)N[C@H](CCCCN)C(N)=O)[C@H](C)CC [D-AP19] (H-[dR][dL][dF][dR][dR][dV][dK][dK][dV][dA]G[dK][dI][dA][dK][dR][dI][dW][dK]-NH2) | 7.81(7.81) µg/ml | 7.81(7.81) µg/ml | 7.81 (7.81) µg/ml | 7.81 (7.81) µg/ml | 7.81(7.81) µg/ml | 7.81(7.81) µg/ml | 15.63(15.63) µg/ml | 15.63(15.63) µg/ml | 7.81(7.81) µg/ml | 7.81(7.81) µg/ml | 3.91(3.91) µg/ml | 3.91(3.91) µg/ml | 7.81(7.81) µg/ml | 7.81(7.81) µg/ml | 7.81(7.81) µg/ml | 7.81(7.81) µg/ml | 7.81(7.81) µg/ml | 7.81(7.81) µg/ml | 31.25(31.25) µg/ml | 31.25(31.25) µg/ml | MBC in the presence of FeCl3 (A. baumannii ATCC 19,606 [11]): 15.63(15.63) µg/ml; MIC in the presence of FeCl3 (A. baumannii ATCC 19,606 [11]): 15.63(15.63) µg/ml; MBC in the presence of NH4Cl (A. baumannii ATCC 19,606 [11]): 7.81(7.81) µg/ml; MIC in the presence of NH4Cl (A. baumannii ATCC 19,606 [11]): 7.81(7.81) µg/ml; MBC in the presence of ZnCl2 (A. baumannii ATCC 19,606 [11]): 15.63(15.63) µg/ml; MIC in the presence of ZnCl2 (A. baumannii ATCC 19,606 [11]): 15.63(15.63) µg/ml; MBC in the presence of MgCl2 (A. baumannii ATCC 19,606 [11]): 7.81(7.81) µg/ml; MIC in the presence of MgCl2 (A. baumannii ATCC 19,606 [11]): 7.81(7.81) µg/ml; MBC in the presence of KCl (A. baumannii ATCC 19,606 [11]): 15.63(15.63) µg/ml; MIC in the presence of KCl (A. baumannii ATCC 19,606 [11]): 15.63(15.63) µg/ml; MBC in the presence of NaCl (A. baumannii ATCC 19,606 [11]): 62.5(62.5) µg/ml; MIC in the presence of NaCl (A. baumannii ATCC 19,606 [11]): 62.5(62.5) µg/ml; MBC in the presence of CaCl2 (A. baumannii ATCC 19,606 [11]): 15.63(15.63) µg/ml; MIC in the presence of CaCl2 (A. baumannii ATCC 19,606 [11]): 15.63(15.63) µg/ml; MBC, control (A. baumannii ATCC 19,606 [11]): 7.81(7.81) µg/ml; MIC, control (A. baumannii ATCC 19,606 [11]): 7.81(7.81) µg/ml
2 | RLFRRVKKVAGKIAKRIWK-NH2 [AP19] | 3.91(3.91) µg/ml | 3.91(3.91) µg/ml | 7.81 µg/mL | 7.81 (7.81) µg/ml | 7.81(7.81) µg/ml | 7.81(7.81) µg/ml | 7.81(7.81) µg/ml | 7.81(7.81) µg/ml | 7.81(7.81) µg/ml | 7.81(7.81) µg/ml | 3.91(3.91) µg/ml | 3.91(3.91) µg/ml | 7.81(7.81) µg/ml | 7.81(7.81) µg/ml | 7.81(7.81) µg/ml | 7.81(7.81) µg/ml | 3.91(3.91) µg/ml | 3.91(3.91) µg/ml | 250(250) µg/ml | 250(250) µg/ml | MBC in the presence of FeCl3 (A. baumannii ATCC 19,606 [11]): 7.81(7.81) µg/ml; MIC in the presence of FeCl3 (A. baumannii ATCC 19,606 [11]): 7.81(7.81) µg/ml; MBC in the presence of NH4Cl (A. baumannii ATCC 19,606 [11]): 7.81(7.81) µg/ml; MIC in the presence of NH4Cl (A. baumannii ATCC 19,606 [11]): 7.81(7.81) µg/ml; MBC in the presence of ZnCl2 (A. baumannii ATCC 19,606 [11]): 7.81(7.81) µg/ml; MIC in the presence of ZnCl2 (A. baumannii ATCC 19,606 [11]): 7.81(7.81) µg/ml; MBC in the presence of MgCl2 (A. baumannii ATCC 19,606 [11]): 7.81(7.81) µg/ml; MIC in the presence of MgCl2 (A. baumannii ATCC 19,606 [11]): 7.81(7.81) µg/ml; MBC in the presence of KCl (A. baumannii ATCC 19,606 [11]): 7.81(7.81) µg/ml; MIC in the presence of KCl (A. baumannii ATCC 19,606 [11]): 7.81(7.81) µg/ml; MBC in the presence of NaCl (A. baumannii ATCC 19,606 [11]): 31.25(31.25) µg/ml; MIC in the presence of NaCl (A. baumannii ATCC 19,606 [11]): 31.25(31.25) µg/ml; MBC in the presence of CaCl2 (A. baumannii ATCC 19,606 [11]): 7.81(7.81) µg/ml; MIC in the presence of CaCl2 (A. baumannii ATCC 19,606 [11]): 7.81(7.81) µg/ml; MBC, control (A. baumannii ATCC 19,606 [11]): 7.81(7.81) µg/ml; MIC, control (A. baumannii ATCC 19,606 [11]): 7.81(7.81) µg/ml

Reference: publication PMC9508196 (Scientific Reports, 2022)
